Molecular target: T1, rat brain voltage-gated K+ channel, Kv1.3 (Rattus norvegicus, UniProt P15384)
T1 construct: expressed in transfected cells; host or cells: Xenopus oocytes (cRNA injection; pAS18 vector, SP6 transcription; clone from Prof; O. Pongs)
Assay: Assay of K+ channel inhibition: two-electrode voltage clamp of Kv1.3 expressed in Xenopus oocytes
Format: cell-based
Conditions: IC50 comparison with C-terminally amidated HsTX1
Protocol: Assay on inhibitory activity of the peptides on K^+ channels was performed in the following manner. The gene of the rat brain voltage-gated K^+ channel, Kv1.3 (Stuhmer et al., EMBO J., 8, vol. 11, pp. 3235-3244, 1988), which was graciously contributed by Prof. O. Pongs (Institute für Neurale Signalverarbeitung, Hamburg, Germany) was inserted into pAS18 vector according to a conventional technique. This vector was treated with EcoRI and then the resultant clone was transcribed in vitro with SP6 RNA polymerase using a transcription kit (Stratagene Inc., USA). The cRNA obtained was injected into Xenopus oocytes 16-72 hr prior to electrophysiological experiments.
The oocytes which had been expressed the Kv1.3 gene were added to a 100 μl-chamber filled with an ND96 solution (0.3 mM CaCl2, 1 mM MgCl2, 2 mM KCl and 96 mM NaCl in 5 mM Hepes buffer, pH 7.6) supplemented with 50 mg/ml of bovine serum albumin (BSA), and the ND96 solution was continuously perfused through reservoirs at a flow rate of 4 ml/min. The sample to be tested was separately dissolved to an ND96 solution and then added to the chamber by perfusion through a reservoir. The switching from one reservoir to another for each experiment was performed by means of Teflon valves. All measurements were made at room temperature (about 22° C.). […]

T1 sequence (P15384 whole entry): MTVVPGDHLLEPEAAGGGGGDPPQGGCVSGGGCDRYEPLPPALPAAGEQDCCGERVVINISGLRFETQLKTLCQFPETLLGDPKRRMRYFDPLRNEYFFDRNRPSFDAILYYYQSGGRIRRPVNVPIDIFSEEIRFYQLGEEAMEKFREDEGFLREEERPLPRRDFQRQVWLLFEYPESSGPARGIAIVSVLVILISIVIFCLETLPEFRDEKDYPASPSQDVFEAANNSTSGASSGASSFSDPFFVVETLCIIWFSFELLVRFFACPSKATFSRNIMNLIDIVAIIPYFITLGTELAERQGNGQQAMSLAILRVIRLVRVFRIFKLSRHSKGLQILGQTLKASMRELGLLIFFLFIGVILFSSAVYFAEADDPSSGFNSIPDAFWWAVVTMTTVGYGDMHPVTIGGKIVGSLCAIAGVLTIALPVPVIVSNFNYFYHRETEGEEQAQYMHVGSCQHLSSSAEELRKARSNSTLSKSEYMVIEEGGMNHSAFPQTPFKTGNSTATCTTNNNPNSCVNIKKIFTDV

Q: `CSCC[C@@H]1NC(=O)[C@@H]2CSSC[C@H](NC(=O)[C@H](CO)NC(=O)[C@H](C)N)C(=O)N[C@@H](CCCNC(=N)N)C(=O)N[C@@H]([C@@H](C)O)C(=O)N3CCC[C@H]3C(=O)N[C@@H](CCCCN)C(=O)N[C@@H](CC(=O)O)C(=O)N[C@H]3CSSC[C@H](NC(=O)[C@H](CCCCN)NC(=O)[C@H](CCCNC(=N)N)NC(=O)[C@H](CC(N)=O)NC1=O)C(=O)N[C@@H](CCCCN)C(=O)N[C@H]1CSSC[C@H](NC(=O)[C@@H]4CCCN4C(=O)[C@H](CC(=O)O)NC(=O)[C@H](C)NC3=O)C(=O)N[C@@H](CCCNC(=N)N)C(=O)N[C@@H](CCCCN)C(=O)N[C@@H](CCC(=O)O)C(=O)N[C@@H]([C@@H](C)O)C(=O)NCC(=O)N[C@@H](CSSC[C@@H](C(=O)O)NC(=O)[C@H](CCCNC(=N)N)NC(=O)[C@H](CC(N)=O)NC1=O)C(=O)N1CCC[C@H]1C(=O)N[C@@H](Cc1ccc(O)cc1)C(=O)NCC(=O)N[C@@H](CCCCN)C(=O)N2` [HsTX1-COOH] was tested. Which “activity relative to HsTX1 on Kv1.3” value did it give?
A: about one-fifth
